A word on the solubility: it is the dissolved amount per volume that the medium holds. Low values mean a poorly soluble substance, high ones a readily soluble substance. By EC50 is commonly meant the concentration that produces a half-maximal response. Read a low EC50 as greater potency. A word on the Ki: it is a measure of affinity in units of concentration, obtained from inhibition or displacement.

Ten compounds from US10752588B2 (The Broad Institute, Inc., priority 2014, dated 2020) can be followed below.

Structures are written as SMILES. Values after ≈ are worked out from the molar mass of the structure shown. Where two headings read alike, the source gives them in different places.

Data set [1] can be described thus: Microsomal stability, mouse.
The nature of data set [2]: Microsomal stability, human. The class given is in vitro ADME.
The nature of data set [3]: Microsomal stability, rat. The class given is in vitro ADME.
Data set [4] concerns the target T1, human D2R/β-arrestin (Homo sapiens (Human), UniProt P14416). Kind of data set: cell-based. To be noted: β-arrestin Antagonist, CHO-K1 cell line expressing human D2R/β-arrestin; quinpirole used as agonist.
Data set [5] is described as follows: Plasma stability, mouse.
Data set [6] deals with plasma protein. Kind of data set: Plasma protein binding, mouse. The class given is in vitro ADME. As to conditions: for fraction unbound: plasma, read-out: Plasma Protein Binding % bound.
Data set [7] can be described thus: Solubility in PBS. It counts as physicochemical.
Data set [8] has as its system plasma protein. Kind of data set: Plasma protein binding, human. It counts as in vitro ADME. To be noted: for fraction unbound: plasma, read-out: Plasma Protein Binding % bound.
For data set [9], the target named is T1, human D2R/β-arrestin. Kind of data set: Gi/cAMP agonist assay (Lance Ultra cAMP, Forskolin). The class given is cell-based. To be noted: CHO-K1 cell line expressing human D2R/β-arrestin. In outline: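 Read-out was Lance Ultra competitive TR-FRET (Eu-cAMP tracer plus ULight-anti-cAMP) following forskolin-induced cAMP production. Before forskolin stimulation, compounds were pin-transferred onto the seeded cells for 10 min at 37 °C.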

A short description of data set [10]: Plasma stability, rat. It counts as in vitro ADME.
Data set [11] deals with T1, human D2R/β-arrestin. Kind of data set: cell-based. To be noted: cAMP Antagonist, CHO-K1 cell line expressing human D2R/β-arrestin; quinpirole used as agonist.
Protocol: (§1) The detection reagents are then added, and the read-out is detected.
(§2) Cells were prepared for assays by growing cultures for up to 2 weeks (from about 6-20 passages). A vial of frozen cells was thawed in a water bath held at 37° C. The cells were then transferred into a 50 ml tube with 10 ml growth media. The vial was rinsed with growth media and the contents transferred to the 50 ml tube. The 50 ml tube was centrifuged at 1200 rpm for 5 minutes at room temperature. […] When the cells reached about 90% confluence (approximately 3 days between passages), the cells were passaged and used for either the agonist or antagonist assays as described below.
(§3) The cells were prepared for Gi/cAMP assays as described above. The assays were performed using a PE Lance Ultra cAMP kit (TRF0263). The cells were grown on 225 mm dishes, then washed once with 1×PBS (Cellgro) before digestion with 2.5 ml 1× Detachment reagent (DRX 92-0009) for about 2 minutes. PBS (20 ml) was then added to the plate, and the cells were transferred to a 50 ml centrifuge tube, and centrifuged at room temperature using BD Dynac III, at 1200 rpm for 5 minutes. […] The plates were then incubated at room temperature for about 30 minutes before addition of Eu-cAMP tracer solution (100, PerkinElmer) and then ULight-anti-cAMP solution (100) to each well.
Data set [12] has as its target D2 (Homo sapiens (Human), UniProt P14416). Kind of data set: D2 radioligand binding assay.
Data set [13] in a line: Plasma stability, human. It counts as in vitro ADME.
The target in data set [14] is T1, human D2R/β-arrestin. Kind of data set: β-Arrestin agonist assay (PathHunter). As to conditions: CHO-K1 cell line expressing human D2R/β-arrestin. It counts as cell-based. In outline: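 Readout follows addition of Buffer:Emerald II:Galactor-Star reagent (19:5:1) to agonist-treated plates, measured as luminescence or fluorescence.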
The test system of data set [15] is plasma protein. Kind of data set: Plasma protein binding, rat. It counts as in vitro ADME. As to conditions: for fraction unbound: plasma, read-out: Plasma Protein Binding % bound.
The target in data set [16] is T1, human D2R/β-arrestin. To be noted: read-out: β-arrestin Antagonist.
The target of data set [17] is T1, human D2R/β-arrestin. As to conditions: read-out: cAMP Antagonist.
Protocol: as §1, §2, §3

T1 sequence (P14416 whole entry): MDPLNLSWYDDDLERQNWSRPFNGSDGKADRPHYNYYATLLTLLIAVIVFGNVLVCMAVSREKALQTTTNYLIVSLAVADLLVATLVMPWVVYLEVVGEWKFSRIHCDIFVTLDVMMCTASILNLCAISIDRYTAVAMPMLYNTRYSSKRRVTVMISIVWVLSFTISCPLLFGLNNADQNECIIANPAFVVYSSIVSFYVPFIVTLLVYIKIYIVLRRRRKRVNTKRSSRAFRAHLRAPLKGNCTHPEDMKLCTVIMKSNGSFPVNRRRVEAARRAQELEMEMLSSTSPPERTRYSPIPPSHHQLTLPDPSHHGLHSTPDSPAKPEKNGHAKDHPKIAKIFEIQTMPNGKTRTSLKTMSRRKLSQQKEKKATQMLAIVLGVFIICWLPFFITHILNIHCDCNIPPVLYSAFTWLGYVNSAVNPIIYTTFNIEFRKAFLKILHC
Chain of D2 (P14416 whole entry): as above

Consider `O=C(NC(c1ccc(Cl)cc1)c1ccccn1)C1CCN(CCOc2ccc3cccnc3c2)CC1` (stereo not drawn) [Compound 16], for which the “Microsomal Stability: % remaining after 60 minutes” value (“Microsomal Stability: % remaining” for short) is 45% in data set [1], 34% in data set [2] and 75% in data set [3]. The IC50 in data set [4] and in data set [11] was more than 30 µM throughout. For the same compound, the “Plasma Stability: % remaining after 5 hours” value (from here on “Plasma Stability: % remaining”) in data set [5] is listed as 94%; in [10] it was 97%; in [13], 98%. The fraction unbound in data set [6] was determined as 0.023; in [8], 0.01; in data set [15] it was 0.021. In [7] (aqueous buffer), this compound gave a solubility of 14 µM (≈ 7.01 µg/mL). The EC50 in data set [9] was less than 0.1 µM; in data set [14] it was 1 to 10 µM. Besides, the inhibitory constant (Ki) in data set [12] was 10 to 30 µM.

On to `O=C(NC(c1cccc(C(F)(F)F)c1)c1ccccn1)C1CCN(CCOc2ccccc2)CC1` (stereo not drawn) [Compound 32, 1-(2-phenoxyethyl)-N-(pyridin-2-yl(3-(trifluoromethyl)phenyl)methyl) piperidine-4-carboxamide], for which the figures for the “Microsomal Stability: % remaining” value in [1], in data set [2] and in [3] were 37%, 61% and 46%, respectively. The IC50 in data set [4] and in data set [11] was 0.1 to 1 µM each time. The results for the “Plasma Stability: % remaining” value in data set [5], in data set [10] and in data set [13] were 74%, 98% and 91%, respectively. Also, the fraction unbound was determined as 0.031 in [6], 0.03 in data set [8] and 0.023 in data set [15]. This compound yielded a solubility in [7] (aqueous buffer) of 151 µM (≈ 73 µg/mL). The 50% effective concentration (EC50) in data set [9] is 10 to 30 µM; in data set [14] it was more than 30 µM.

As for `O=C(NC(c1ccc(Cl)cc1)c1ccccn1)C1CCN(CCOc2ccc3ccc(=O)[nH]c3c2)CC1` (stereo not drawn) [Compound 15], the results for the “Microsomal Stability: % remaining” value in data set [1], in [2] and in data set [3] were 44%, 56% and 68%, respectively. Also, the “Plasma Stability: % remaining” value in [5] is recorded as 100%; in data set [10] it was 91%; in data set [13], 96%. Further, the figures for the “Plasma Protein Binding % bound” value in data set [6], in data set [8] and in [15] were 97.4%, 97.7% and 99.0%, respectively. In addition, in [7], the solubility was 4.1 µM (≈ 2.12 µg/mL). The concentration for a half-maximal effect (EC50) in data set [9] and in data set [14] was more than 30 µM each time. Also, the values for the IC50 in [16] and in data set [17] were 10 to 30 µM and more than 30 µM, respectively.

With `O=C(NC(c1ccc(C(F)(F)F)cc1)c1ccccn1)C1CCN(CCOc2ccccc2)CC1` (stereo not drawn) [Compound 31, 1-(2-phenoxyethyl)-N-(pyridin-2-yl(4-(trifluoromethyl)phenyl)methyl) piperidine-4-carboxamide], the “Microsomal Stability: % remaining” value in data set [1] was determined as 57%; in [2], 53%; in data set [3], 55%. Moreover, the IC50 was 1 to 10 µM in [4] and more than 30 µM in [11]. The “Plasma Stability: % remaining” value in data set [5] is on record as 84.5%; in data set [10], 100%; in data set [13], 94.2%. The fraction unbound in data set [6] worked out at 0.026; in data set [8], 0.023; in data set [15], 0.014. In [7] (aqueous buffer), this compound registered a solubility of 27 µM (≈ 13.1 µg/mL). Further, the EC50 in data set [9] is 0.1 to 1 µM; in data set [14], more than 30 µM.

For the compound `O=C(NC(c1ccc(Cl)cc1)c1cccc(F)c1)C1CCN(CCOc2ccccc2)CC1` (stereo not drawn) [Compound 41], the “Microsomal Stability: % remaining” value is 64% in data set [1], 45% in [2] and 78% in [3]. Further, the IC50 in [4] was 1 to 10 µM; in [11], 0.1 to 1 µM. Also, the results for the “Plasma Stability: % remaining” value in data set [5], in [10] and in data set [13] were 100%, 96% and 100%, respectively. Besides, the fraction unbound in data set [6] is 0.006; in data set [8], 0.007; in data set [15], 0.014. This compound registered a solubility in data set [7] (aqueous buffer) of less than 0.1 µM. The EC50 in data set [9] and in [14] was more than 30 µM in each case.

As to `O=C(NC(c1ccc(Cl)cc1)c1ccccn1)C1CCN(CCOc2ccccc2F)CC1` (stereo not drawn) [Compound 3], the “Microsomal Stability: % remaining” value in data set [1] came out at 22%; in [2], 64%; in data set [3] it was 44%. Moreover, the IC50 in data set [4] was 0.1 to 1 µM; in data set [11], more than 30 µM. Besides, the results for the “Plasma Stability: % remaining” value in data set [5], in [10] and in data set [13] were 100%, 86% and 92%, respectively. Moreover, the values for the fraction unbound in [6], in data set [8] and in data set [15] were 0.015, 0.246 and 0.315, respectively. Also, in data set [7] (aqueous buffer), the solubility came out at 43 µM (≈ 20.1 µg/mL). Also, the values for the EC50 in [9] and in data set [14] were less than 0.1 µM and more than 30 µM, respectively.

As to `O=C(NC(c1cccc(F)c1)c1ccccn1)C1CCN(CCOc2ccccc2)CC1` (stereo not drawn) [Compound 26], the “Microsomal Stability: % remaining” value in data set [1] is 66%; in [2], 84%; in data set [3], 96%. For the same compound, the IC50 in [4] fell in the range of 1 to 10 µM; in data set [11], 0.1 to 1 µM. Besides, the “Plasma Stability: % remaining” value is given as 92% in [5], 99% in data set [10] and 100% in data set [13]. In addition, the fraction unbound came out at 0.057 in [6], 0.062 in data set [8] and 0.046 in [15]. In data set [7] (aqueous buffer), this compound showed a solubility of 460 µM (≈ 199 µg/mL). Moreover, the half-maximal effective concentration (EC50) in data set [9] and in data set [14] was more than 30 µM each time.

With `O=C(NC(c1cccc(Cl)c1)c1ccccn1)C1CCN(CCOc2ccccc2)CC1` (stereo not drawn) [Compound 23], the results for the “Microsomal Stability: % remaining” value in data set [1], in [2] and in data set [3] were 41%, 76% and 77%, respectively. Moreover, the IC50 in data set [4] and in data set [11] was 0.1 to 1 µM throughout. Besides, the “Plasma Stability: % remaining” value in [5] worked out at 100%; in data set [10] it was 96%; in [13] it was 100%. Also, the fraction unbound is 0.03 in [6], 0.023 in data set [8] and 0.033 in data set [15]. For the same compound, the solubility in [7] (aqueous buffer) turned out to be 225 µM (≈ 101 µg/mL). Further, the EC50 in data set [9] and in [14] was more than 30 µM in each case.

Take `O=C(NC(c1ccccn1)c1ccccc1F)C1CCN(CCOc2ccccc2)CC1` (stereo not drawn) [Compound 28]: the figures for the “Microsomal Stability: % remaining” value in data set [1], in data set [2] and in [3] were 52%, 87% and 78%, respectively. Moreover, the entries for the “Plasma Stability: % remaining” value in [5], in [10] and in [13] were 95%, 99% and 100%, respectively. In addition, the “Plasma Protein Binding % bound” value came to 72.2% in [6], 75.3% in data set [8] and 76.7% in data set [15]. For the same compound, the solubility in [7] is reported as 434 µM (≈ 188 µg/mL). Moreover, the EC50 in [9] was 0.1 to 1 µM; in data set [14], more than 30 µM. Besides, the IC50 in data set [16] is 1 to 10 µM; in data set [17], more than 30 µM.

On to `O=C(NC(c1ccc(Cl)cc1)c1ccccn1)C1CCN(CCOc2cc(F)ccc2F)CC1` (stereo not drawn) [Compound 14], for which the “Microsomal Stability: % remaining” value in data set [1] is 11%; in data set [2] it was 49%; in data set [3], 44%. Also, the IC50 was 0.1 to 1 µM in data set [4] and more than 30 µM in data set [11]. Moreover, the “Plasma Stability: % remaining” value is 100% in data set [5], 78.2% in data set [10] and 96.7% in [13]. Besides, the fraction unbound in data set [6] was 0.015; in data set [8] it was 0.009; in data set [15] it was 0.006. This compound showed a solubility in [7] (aqueous buffer) of 36.1 µM (≈ 17.5 µg/mL). Also, the EC50 in data set [9] is less than 0.1 µM; in [14] it was more than 30 µM.
